Data published in patent US20230090094A1, “HEMP EXTRACT FOR TREATMENT OF PAIN, CANCER AND EPILEPSY IN ANIMALS” (ElleVet Sciences, priority 2019, published 2023).
“And” between values parts separate entries of the source, which are not always exact repeats. Identical values can stand only once. Marks after values point to notes of the source that are not given here.

Experiments:
[1] = Feline serum cannabidiol quantification and pharmacokinetics (LC-MS/MS); format: in vivo, cats; conditions: for Cannabidiol in serum: individual cats, replicates A/B, ppb = ng/mL, LOD 1.9, LOQ 6.2
Description: On the first day of dosing, blood was collected for a PK analysis from 6 of the 8 cats. The most cooperative cats were selected for the PK analysis. […] Samples were placed into a red top clotting tube with no serum separator. […] The harvested serum was placed in cyrovials stored at −70° C. Each tube was labeled with the cat id, date of collection and collection time point. Samples were shipped overnight on dry ice to the Proteomics & Metabolomics Facility at Colorado State University.
Aliquots of feline serum were delivered to the facility on dry ice and stored at −80° C. upon receipt. […] of cold (−20C.) 100% Acetonitrile (spiked with 60 ng/mL of d3-CBD) was added to each sample and vortexed at room temperature for 5 minutes. 200 μL of water was added and vortexed for an additional 5 minutes. 1 ml of 100% hexane was then added to each sample and vortexed for a final 5 minutes. […] The upper hexane layer was transferred to new-labeled glass vials (˜900 uL per sample), carefully avoiding the middle and lower layers.
An 8 point standard curve of CBD was generated in matrix background using a blank serum. Concentrations ranged from 0 ng/mL 1000 ng/mL (3.2X dilution series). 50 uL of each spiked serum sample was extracted as above.
LC-MS/MS was performed on a Waters Acquity M-Class UPLC coupled to a Waters Xevo TQ-S triple quadrupole mass spectrometer. […] Flow rate was 3.0 μL/min and injection volume was 2.0 μL. Samples were held at 6° C. in the autosampler, and the column was operated at 70° C. The MS was operated in selected reaction monitoring (SRM) mode, where a parent ion is selected by the first quadrupole, fragmented in the collision cell, then a fragment ion selected for by the third quadrupole. Product ions, collision energies, and cone voltages were optimized for each analyte by direct injection of individual synthetic standards. Inter-channel delay was set to 3 ms. The MS was operated in positive ionization mode with the capillary voltage set to 3.6 kV. […] Desolvation gas flow was […], cone gas flow was 150 L/hr, and collision gas flow was 0.2 mL/min. Nebulizer pressure (nitrogen) was set to 7 Bar. Argon was used as the collision gas.
Each target analyte was visually inspected for retention time and peak area integration. Peak areas were extracted for target compounds detected in biological samples and normalized to the peak area of the appropriate internal standard in each sample using in-house R Script (TQS-tools). CBD concentrations were calculated in nanograms per milliliter of extract (0.06 mL) and then back calculated to nanograms per mL of serum (0.05 mL of serum).
LOD are calculated based on the standard deviation of the response (Sy) of the 0 point calibration standard (i.e. 0 ng/mL CBD as an estimate on noise) and the slope of the calibration curve (S) at levels approximating the LOD according to the formula: LOD=3*(Sy/S). LOQ=10*(Sy/S).

[2] = Single-dose oral pharmacokinetics of CBD oil in beagles; format: in vivo, dogs; conditions: industrial hemp
Description: The dogs were fed two hours after dosing. […] Attitude, behavior, proprioception, and gait were subjectively evaluated at each time point during free running/walking and navigation around standard traffic cones (weaving). […] Blood samples were obtained via jugular venipuncture and transferred to a coagulation tube for 20 minutes. Samples were centrifuged (VWR, Clinical Centrifuge) at 3,600×g for 10 minutes; serum was removed and stored at −80° C. until analysis using liquid chromatography-mass spectrometry (LC-MS) at Colorado State University Core Mass Spectrometry facility.
CBD was extracted from canine serum using a combination of protein precipitation and liquid-liquid extraction using n-hexane, with minor modifications for microflow ultra-high pressure liquid chromatography (UHPLC). Briefly, 0.05 ml of canine serum was subjected to protein precipitation in the presence of ice-cold acetonitrile (80% final concentration), spiked with deuterated CBD as the internal standard (0.06 mg/ml, CDB-d3 Cerilliant, Round Rock, Tex., USA). 0.2 ml of water was added to each sample prior to the addition of 1.0 ml of hexane to enhance liquid-liquid phase separation. Hexane extract was removed and concentrated to dryness under laboratory nitrogen. Prior to LC-MS analysis, samples were resuspended in 0.06 mL of 100% acetonitrile. A standard curve using the CBD analytical standard was prepared in canine serum non-exposed to CBD and extracted as above.
From the UHPLC-QQQ-MS data, peak areas were extracted for CBD detected in biological samples and normalized to the peak area of the internal standard CBD-d3, in each sample using Skyline as well as an in-house R Script (www.r-project.org). […] Pharmacokinetic variables were estimated by means of non-compartmental analysis, utilizing a pharmacokinetic software package (PK Solution, version 2.0, Montrose, Colo., USA).

C=C(C)[C@@H]1CCC(C)=C[C@H]1c1c(O)cc(CCCCC)cc1O [cannabidiol]
Cannabidiol in serum ([1]; 60 min after CBD oil 2 mg/kg oral): 24.44 ppb and 26.32 ppb and 44.14 ppb and 45.40 ppb and 28.10 ppb and 31.02 ppb and 378.59 ppb and 535.08 ppb and 32.85 ppb and 34.26 ppb
Cannabidiol in serum ([1]; 4 hr after CBD oil 2 mg/kg oral): 1.69** ppb and 1.82** ppb and 1.53** ppb and 51.48 ppb and 68.31 ppb
Cannabidiol in serum ([1]; 8 hr after CBD oil 2 mg/kg oral): 65.42 ppb and 79.30 ppb and 1.82** ppb and 2.22* ppb and 44.23 ppb and 46.05 ppb and 365.18 ppb and 376.28 ppb and 71.64 ppb and 79.59 ppb
Cannabidiol in serum ([1]; 24 hr after CBD oil 2 mg/kg oral): 42.76 ppb and 44.88 ppb and 141.92 ppb and 147.74 ppb and 10.28 ppb and 10.31 ppb and 13.95 ppb and 17.17 ppb and 0.18** ppb and 0.36** ppb and 33.12 ppb and 35.88 ppb
AUC(0-t) ([1]; serum, po, 2 mg/kg): 154 ng·h/mL
Average retention time ([2]; dosing at 2 mg/kg): 6 h
Peak concentration ([2]; dosing at 2 mg/kg, average 20 mg total dose): approximately 100 ug/kg
Total absorption ([2]; oral dosing at 2 mg/kg): less than 20%
